# Source: ChEMBL document CHEMBL1158540, “Heterocyclic cycloalkanol ethylamines as norepinephrine reuptake inhibitors” (Bioorg Med Chem Lett, 2010)
# Tests used:
# [1] = biological target: T1, Sodium-dependent noradrenaline transporter (Homo sapiens, UniProt P23975)
# [2] = biological target: T2, Sodium-dependent dopamine transporter (Homo sapiens, UniProt Q01959); experiment: biochemical
# Description: Displacement of [3H]WIN-35428 form human DAT expressed in CHO cell membranes
# [3] = biological target: T1, Sodium-dependent noradrenaline transporter; experiment: Inhibition of human NET transfected in MDCK-Net6 cells at 1 uM; assay type: cell-based
# [4] = biological target: T2, Sodium-dependent dopamine transporter; experiment: Inhibition of [3H]WIN-35428 binding to human DAT expressed in CHO membranes at 1000 nM; assay type: cell membranes
# [5] = biological target: T3, Sodium-dependent serotonin transporter (Homo sapiens, UniProt P31645); experiment: Inhibition of human SERT expressed in human JAR cells at 1 uM; assay type: cell-based
# Target sequence in this assay (P31645 whole entry, looked up): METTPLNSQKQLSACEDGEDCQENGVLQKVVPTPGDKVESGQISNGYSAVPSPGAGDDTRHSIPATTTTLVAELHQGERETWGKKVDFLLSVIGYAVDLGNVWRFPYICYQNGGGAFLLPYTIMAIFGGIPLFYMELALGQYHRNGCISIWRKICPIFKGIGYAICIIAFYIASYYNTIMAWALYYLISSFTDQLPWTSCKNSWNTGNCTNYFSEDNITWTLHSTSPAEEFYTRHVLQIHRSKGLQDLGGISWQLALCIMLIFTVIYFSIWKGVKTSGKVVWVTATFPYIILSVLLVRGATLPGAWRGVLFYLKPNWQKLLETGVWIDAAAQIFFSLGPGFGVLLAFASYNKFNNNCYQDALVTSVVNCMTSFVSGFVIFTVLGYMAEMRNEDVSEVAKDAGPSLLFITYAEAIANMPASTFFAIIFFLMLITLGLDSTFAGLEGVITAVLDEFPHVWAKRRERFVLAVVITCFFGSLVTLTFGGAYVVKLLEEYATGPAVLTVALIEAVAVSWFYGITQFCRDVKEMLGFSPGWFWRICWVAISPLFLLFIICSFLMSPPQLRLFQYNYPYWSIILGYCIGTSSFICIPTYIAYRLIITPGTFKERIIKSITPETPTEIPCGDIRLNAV
# Rattus norvegicus [6] = experiment: Effect on temperature homeostasis in telemetric ovariectomy-induced thermoregulatory dysfunction rat model assessed as maximum reduction of tail skin temperature from baseline at 30 mg/kg, ip fter 5.5 hrs; assay type: functional; details: route intraperitoneal
# Rattus norvegicus [7] = experiment: Effect on temperature homeostasis in telemetric ovariectomy-induced thermoregulatory dysfunction rat model assessed as mean reduction of tail skin temperature from baseline at 30 mg/kg, ip after 5.5 hrs; assay type: functional; details: route intraperitoneal
# Rattus norvegicus [8] = experiment: Effect on temperature homeostasis in telemetric ovariectomy-induced thermoregulatory dysfunction rat model assessed as maximum reduction of tail skin temperature from baseline at 30 mg/kg, sc fter 6.5 hrs; assay type: functional; details: route subcutaneous
# [9] = Half life in rat microsomes; assay type: ADME, Microsome
# Rattus norvegicus [10] = experiment: Effect on temperature homeostasis in telemetric ovariectomy-induced thermoregulatory dysfunction rat model assessed as mean reduction of tail skin temperature from baseline at 30 mg/kg, po after 3 hrs; assay type: functional
# Rattus norvegicus [11] = experiment: Effect on temperature homeostasis in telemetric ovariectomy-induced thermoregulatory dysfunction rat model assessed as maximum reduction of tail skin temperature from baseline at 30 mg/kg, po after 3 hrs; assay type: functional
# Rattus norvegicus [12] = experiment: Effect on temperature homeostasis in telemetric ovariectomy-induced thermoregulatory dysfunction rat model assessed as mean reduction of tail skin temperature from baseline at 30 mg/kg, sc after 6.5 hrs; assay type: functional; details: route subcutaneous
# [13] = biological target: T3, Sodium-dependent serotonin transporter; assay type: cell-based, JAR
# Target sequence in this assay (P31645 whole entry): as the sequence (P31645 whole entry, looked up) above
# Rattus norvegicus [14] = experiment: Effect on temperature homeostasis in telemetric ovariectomy-induced thermoregulatory dysfunction rat model assessed as maximum reduction of tail skin temperature from baseline at 30 mg/kg, ip fter 6 hrs; assay type: functional; details: route intraperitoneal
# Rattus norvegicus [15] = experiment: Effect on temperature homeostasis in telemetric ovariectomy-induced thermoregulatory dysfunction rat model assessed as mean reduction of tail skin temperature from baseline at 30 mg/kg, ip after 6 hrs; assay type: functional; details: route intraperitoneal
# T2 sequence (Q01959 whole entry): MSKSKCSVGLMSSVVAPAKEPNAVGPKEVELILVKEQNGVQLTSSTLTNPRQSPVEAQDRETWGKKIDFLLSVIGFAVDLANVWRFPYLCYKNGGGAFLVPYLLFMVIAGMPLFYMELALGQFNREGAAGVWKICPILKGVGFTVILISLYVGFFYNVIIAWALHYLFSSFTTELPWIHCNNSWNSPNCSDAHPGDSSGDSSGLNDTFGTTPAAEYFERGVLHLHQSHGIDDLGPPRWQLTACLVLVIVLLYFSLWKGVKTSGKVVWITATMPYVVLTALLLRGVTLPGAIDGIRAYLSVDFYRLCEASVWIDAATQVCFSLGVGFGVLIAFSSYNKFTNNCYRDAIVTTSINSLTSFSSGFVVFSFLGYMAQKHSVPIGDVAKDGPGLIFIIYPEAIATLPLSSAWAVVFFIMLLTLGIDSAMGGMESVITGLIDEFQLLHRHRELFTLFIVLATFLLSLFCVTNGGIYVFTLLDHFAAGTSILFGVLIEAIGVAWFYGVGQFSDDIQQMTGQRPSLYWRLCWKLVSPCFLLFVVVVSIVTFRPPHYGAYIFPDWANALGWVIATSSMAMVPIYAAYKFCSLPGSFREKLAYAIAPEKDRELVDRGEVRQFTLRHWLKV
# T1 sequence (P23975 whole entry): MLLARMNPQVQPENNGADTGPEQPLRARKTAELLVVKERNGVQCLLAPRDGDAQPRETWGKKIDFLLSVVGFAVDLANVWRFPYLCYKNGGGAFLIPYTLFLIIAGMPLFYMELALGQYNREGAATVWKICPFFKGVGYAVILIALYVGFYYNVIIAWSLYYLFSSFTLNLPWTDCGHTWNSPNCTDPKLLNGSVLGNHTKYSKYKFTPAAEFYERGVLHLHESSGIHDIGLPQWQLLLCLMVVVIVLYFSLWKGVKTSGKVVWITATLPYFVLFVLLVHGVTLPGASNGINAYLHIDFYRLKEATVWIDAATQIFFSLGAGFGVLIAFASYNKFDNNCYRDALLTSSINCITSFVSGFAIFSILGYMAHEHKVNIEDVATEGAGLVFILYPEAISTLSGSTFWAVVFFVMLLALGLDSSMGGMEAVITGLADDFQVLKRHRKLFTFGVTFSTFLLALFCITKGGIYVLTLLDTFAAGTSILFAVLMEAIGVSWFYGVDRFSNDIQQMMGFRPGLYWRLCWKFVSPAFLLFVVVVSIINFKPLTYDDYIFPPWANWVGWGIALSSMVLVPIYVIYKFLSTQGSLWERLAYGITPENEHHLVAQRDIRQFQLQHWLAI
SMILES,IC50 [1],IC50 [2],INH [3],INH [5],also measured
CN1CCN(C[C@H](c2cccc(Cl)c2)C2(O)CCCCC2)CC1,30 nM,175 nM,92 µM,–,–
CN1CCN(C[C@@H](c2cccc(Cl)c2)C2(N)CCCCC2)CC1,576 nM,30 nM,–,32 µM,–
CN1CCN(C[C@H](c2csc(Cl)c2)C2(O)CCCCC2)CC1,57 nM,212 nM,91 µM,–,Activity (Rattus norvegicus [6]): -4.6 °C; Activity (Rattus norvegicus [7]): -3.3 °C
OC1(C(CN2CCNCC2)c2c[nH]c3ccccc23)CCCCC1 (stereo not given),–,–,21 µM,90 µM,–
CN1CCN(CC(c2cccc(Cl)c2)C2(O)CCCCC2)CC1 (stereo not given),56 nM,247 nM,–,–,Activity (Rattus norvegicus [8]): -3.5 °C; half-life [9]: < 1 min; Activity (Rattus norvegicus [10]): -3.1 °C; Activity (Rattus norvegicus [11]): -3.8 °C; Activity (Rattus norvegicus [12]): -2.6 °C; IC50 [13]: > 2000 nM
Cn1cc(C(CN2CCNCC2)C2(O)CCCCC2)c2ccccc21 (stereo not given),–,–,32 µM,–,–
OC1(C(CN2CCNCC2)c2cnc3ccccc3c2)CCCCC1 (stereo not given),–,–,19 µM,–,–
CN1CCN(CC(c2csc(Cl)c2)C2(O)CCCCC2)CC1 (stereo not given),95 nM,389 nM,88 µM,–,Activity (Rattus norvegicus [14]): -4.2 °C; Activity (Rattus norvegicus [15]): -2.75 °C
OC1(C(CN2CCNCC2)c2cc(Cl)sc2Cl)CCCCC1 (stereo not given),225 nM,–,94 µM,12.2 µM,–
CN1CCN(C[C@@H](c2csc(Cl)c2)C2(O)CCCCC2)CC1,18000 nM,> 6000 nM,0 µM,–,–

# Further lines, with some results ahead:
IC50 [1],IC50 [2],INH [3],INH [5],SMILES,also measured
100 nM,–,86 µM,–,OC1(C(CN2CCNCC2)c2csc(Cl)c2)CCCCC1 (stereo not given),inhibition [4]: 43%
720 nM,–,55 µM,34 µM,OC1(C(CN2CCNCC2)c2ccsc2Cl)CCCCC1 (stereo not given),–
255 nM,–,82 µM,48 µM,OC1(C(CN2CCNCC2)c2csc3ccccc23)CCCCC1 (stereo not given),inhibition [4]: 51%
–,–,54 µM,–,OC1(C(CN2CCNCC2)c2cccs2)CCCCC1 (stereo not given),–
550 nM,–,73 µM,89 µM,OC1(C(CN2CCNCC2)c2cc3ccccc3s2)CCCCC1 (stereo not given),inhibition [4]: 61%
–,–,50.8 µM,–,OC1(C(CN2CCNCC2)c2ccc(Cl)s2)CCCCC1 (stereo not given),–
